{"source": "patent US20190070128A1", "about": "“USE OF CANNABIDIVARIN IN THE TREATMENT OF AUTISM SPECTRUM DISORDER, ASSOCIATED DISORDERS AND SCHIZOPHRENIA” (GW Research Limited, priority 2016, published 2019)", "key": {"animal models of seizure": {"test_system": "animal models of seizure", "settings": "in vivo; cited from earlier work"}, "Fmr1 KO and WT mice": {"test_system": "Fmr1 KO and WT mice", "assay": "susceptibility to audiogenic seizures in Fmr1 KO and WT mice (PND21)", "assay_type": "in vivo, mouse", "settings": "for audiogenic seizures: FXS mice", "experimental": "This trait was evaluated in PND21 mice after acute administration of the compounds or its vehicle, 30 min before starting the procedure. To measure audiogenic seizure sensitivity mice were placed individually into a novel environment, a glass cylinder (40 cm high, 16 cm diameter) and allowed to explore for 1 min. Next, a bell (100 dB) was rung for 30 sec and seizure activity scored according to the following scale: no response, 0; wild running, 1; clonic seizure, 2; tonic seizure, 3; status epilepticus/respiratory arrest/death, 4.\nOn postnatal day 21 (PND21) WT and Fmr1 KO mice were injected with CBDV (2, 10, 20 or 100 mg/kg) or vehicle, 30 min before exposure to a bell ring (100 dB). Mice exposed to this noise for 30 sec ceased from their normal exploratory behaviour and reacted with gradually to wild-running, clonic seizure, tonic seizure or death. The maximum response was annotated for each mouse as detailed in Table 2 below. A score was calculated according to the severity of the symptoms as explained in the Methods section."}, "MeCP2 KO mice [1]": {"test_system": "MeCP2 KO mice", "assay": "survival of MeCP2 KO and WT mice", "assay_type": "in vivo, mouse", "settings": "for survival rate: vehicle 25%", "experimental": "CBDV was administered daily at the dose of 2, 20 and 200 mg/kg i.p. starting from PND 28 and the following signs were scored every other day: hindlimb clasping (indication of motor imbalance), tremor, gait (measure of coordination), breathing, mobility and general condition.\nThe CBDV was dissolved in ethanol, cremophor and saline (1:1:18).\nStarting from PND 28, mice received a daily intraperitoneal injection of CBDV (or vehicle) at the dose of 2, 20 and 200 mg/kg. Animals were then scored every other day to evaluate the effect of CBDV treatment on motor symptoms (hindlimb clasping, gait, mobility) as well as neurological signs and general conditions (breathing abnormalities, tremors and general condition) present in MeCP2 knockout (KO) mice."}, "MeCP2 KO mice [2]": {"test_system": "MeCP2 KO mice", "assay": "Novel Object Recognition (NOR) test in MeCP2 KO mice", "assay_type": "in vivo, mouse", "experimental": "Furthermore, the efficacy of CBDV in reverting/attenuating the short- and long-term memory deficits present in these mice was evaluated. The Novel Object Recognition (NOR) test was performed before the starting of the treatment Post Natal Day 28 (PND 28), at PND 41 when the first motor symptoms appear and at PND 56 and 66 when the disease is fully manifested.\nAt PND 28, 41, 56 and 66 the effect of CBDV on short- and long-term memory deficits was investigated through the Novel Object Recognition (NOR) test.\nThe experimental apparatus used for the Novel Object Recognition test was an open-field box (43×43×32 cm) made of Plexiglas, placed in a dimly illuminated room. Animals performed each test individually.\nBriefly, each animal was placed in the arena and allowed to explore two identical previously unseen objects for 10 minutes (familiarization phase). After an inter-trial interval of 30 minutes and 24 hours one of the two familiar objects was replaced by a novel, previously unseen object and mice were returned to the arena for the 10-minute test phase.\nDuring the test phase the time spent exploring the familiar object (Ef) and the new object (En) was recorded separately by two observers blind to the groups and the discrimination index was calculated as follows: [(En−Ef)/(En+Ef)]×100."}, "[3]": {"target": "T1, CB1 cannabinoid receptors (Mus musculus, UniProt P47746)", "T1 construct": "in both MF1 mouse brain and hCB1-CHO cell membranes; from tissue; host or cells: MF1 mouse brain membranes", "T1 sequence (P47746 whole entry)": "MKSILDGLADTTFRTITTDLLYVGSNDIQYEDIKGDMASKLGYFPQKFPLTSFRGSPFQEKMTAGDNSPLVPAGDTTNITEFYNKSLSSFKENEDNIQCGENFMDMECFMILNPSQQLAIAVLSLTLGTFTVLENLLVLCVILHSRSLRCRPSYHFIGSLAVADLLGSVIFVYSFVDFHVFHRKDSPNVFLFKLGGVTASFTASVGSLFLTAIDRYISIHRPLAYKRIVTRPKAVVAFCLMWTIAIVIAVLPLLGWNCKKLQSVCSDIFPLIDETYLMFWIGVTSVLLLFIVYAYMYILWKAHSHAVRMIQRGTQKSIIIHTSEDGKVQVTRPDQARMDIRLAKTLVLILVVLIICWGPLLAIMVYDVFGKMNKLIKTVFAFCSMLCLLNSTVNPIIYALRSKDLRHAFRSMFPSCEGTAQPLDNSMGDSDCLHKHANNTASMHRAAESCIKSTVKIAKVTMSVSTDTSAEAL", "settings": "MF1 mouse brain membranes; extract compared with purified CBDV; cited from earlier work"}, "Ube3am-/p+ (AS) mice": {"test_system": "Ube3am-/p+ (AS) mice", "assay": "novel object recognition in Angelman syndrome mice", "assay_type": "in vivo, mouse", "settings": "20 mg/kg i.p., age 7-8 weeks, vs AS vehicle", "experimental": "Heterozygous mice with maternal deficiency of Ube3A (Ube3am−/p+) and wild type (Ube3am+/p+) were purchased from The Jackson Laboratory (Jackson code: B6.12957-Ube3a tm1Alb/J) and maintained in a C57BL/6 background.\nDrugs were dissolved in 1:1:18 ethanol:cremophor:0.9% saline, for intraperitoneal (i.p.) administration. Drug treatment was performed daily for 35 days. CBDV was administered at 20 mg/kg.\nNovel Object Recognition: The novel object recognition assesses recognition memory in mice. The experiment started with the habituation period, during which mice were allowed to freely explore for 1 hour the apparatus which consists of a rectangular open box (40×30×30 cm width×length×height) made of grey polyvinyl chloride (PVC) illuminated by a dim light. The day after each mouse was allowed to explore two identical objects positioned in the back left and right corners for 5 min (acquisition). A video camera recorded the time spent on exploration of each object. […] The behaviour of mice was analyzed by an observer blind to the treatment. Data are expressed as percentage of recognition index (RI %), which was calculated as the percentage of the time spent exploring the novel object/time spent exploring the novel object+time spent exploring the familiar object×100."}, "[4]": {"settings": "WT, CBDV 2 mg/kg, n = 6, acute (30 min)"}, "[5]": {"settings": "WT, CBDV 10 mg/kg, n = 5, acute (30 min)"}, "[6]": {"settings": "WT, CBDV 20 mg/kg, n = 6, acute (30 min)"}, "[7]": {"settings": "WT, CBDV 100 mg/kg, n = 6, acute (30 min)"}}, "note": "“Also recorded” adds a separate entry of the source."}
{"smiles": "C=C(C)[C@@H]1CCC(C)=C[C@H]1c1c(O)cc(CCC)cc1O", "note": "[CBDV, Cannabidivarin]", "values": [{"measurement": "effect in animal models of seizure", "setting": "animal models of seizure", "result": "effective"}, {"measurement": "audiogenic seizures, maximum response: Clonic seizure", "setting": "Fmr1 KO and WT mice; 2 mg/kg, 0.5 h", "result": 0}, {"measurement": "audiogenic seizures, maximum response: No response", "setting": "Fmr1 KO and WT mice; 2 mg/kg, 0.5 h", "result": 2}, {"measurement": "audiogenic seizures, maximum response: Tonic seizure", "setting": "Fmr1 KO and WT mice; 2 mg/kg, 0.5 h", "result": 2}, {"measurement": "audiogenic seizures, maximum response: Wild running", "setting": "Fmr1 KO and WT mice; 2 mg/kg, 0.5 h", "result": 1}, {"measurement": "audiogenic seizures, maximum response: Clonic seizure", "setting": "Fmr1 KO and WT mice; 10 mg/kg, 0.5 h", "result": 0}, {"measurement": "audiogenic seizures, maximum response: No response", "setting": "Fmr1 KO and WT mice; 10 mg/kg, 0.5 h", "result": 0}, {"measurement": "audiogenic seizures, maximum response: Tonic seizure", "setting": "Fmr1 KO and WT mice; 10 mg/kg, 0.5 h", "result": 2}, {"measurement": "audiogenic seizures, maximum response: Wild running", "setting": "Fmr1 KO and WT mice; 10 mg/kg, 0.5 h", "result": 3}, {"measurement": "audiogenic seizures, maximum response: Clonic seizure", "setting": "Fmr1 KO and WT mice; 20 mg/kg, 0.5 h", "result": 0}, {"measurement": "audiogenic seizures, maximum response: No response", "setting": "Fmr1 KO and WT mice; 20 mg/kg, 0.5 h", "result": 2}, {"measurement": "audiogenic seizures, maximum response: Tonic seizure", "setting": "Fmr1 KO and WT mice; 20 mg/kg, 0.5 h", "result": 2}, {"measurement": "audiogenic seizures, maximum response: Wild running", "setting": "Fmr1 KO and WT mice; 20 mg/kg, 0.5 h", "result": 1}, {"measurement": "audiogenic seizures, maximum response: Clonic seizure", "setting": "Fmr1 KO and WT mice; 100 mg/kg, 0.5 h", "result": 0}, {"measurement": "audiogenic seizures, maximum response: No response", "setting": "Fmr1 KO and WT mice; 100 mg/kg, 0.5 h", "result": 5}, {"measurement": "audiogenic seizures, maximum response: Tonic seizure", "setting": "Fmr1 KO and WT mice; 100 mg/kg, 0.5 h", "result": 0}, {"measurement": "audiogenic seizures, maximum response: Wild running", "setting": "Fmr1 KO and WT mice; 100 mg/kg, 0.5 h", "result": 0}, {"measurement": "audiogenic seizures, maximum response: Death", "setting": "Fmr1 KO and WT mice; FXS (Fmr1 KO), CBDV 2 mg/kg, n = 5, acute (30 min)", "result": 0}, {"measurement": "audiogenic seizures, maximum response: Death", "setting": "Fmr1 KO and WT mice; FXS (Fmr1 KO), CBDV 10 mg/kg, n = 5, acute (30 min)", "result": 0}, {"measurement": "audiogenic seizures, maximum response: Death", "setting": "Fmr1 KO and WT mice; FXS (Fmr1 KO), CBDV 20 mg/kg, n = 5, acute (30 min)", "result": 0}, {"measurement": "audiogenic seizures, maximum response: Death", "setting": "Fmr1 KO and WT mice; FXS (Fmr1 KO), CBDV 100 mg/kg, n = 5, acute (30 min)", "result": 0}, {"measurement": "audiogenic seizures", "setting": "Fmr1 KO and WT mice; 100 mg/kg acute, 100 mg/kg", "result": "remained seizure free; also recorded: completely eliminate the seizures"}, {"measurement": "audiogenic seizures", "setting": "Fmr1 KO and WT mice; lower doses", "result": "seizures of varying severity"}, {"measurement": "audiogenic seizures, maximum response: Clonic seizure", "setting": "Fmr1 KO and WT mice; [4]", "result": 0}, {"measurement": "audiogenic seizures, maximum response: Death", "setting": "Fmr1 KO and WT mice; [4]", "result": 0}, {"measurement": "audiogenic seizures, maximum response: No response", "setting": "Fmr1 KO and WT mice; [4]", "result": 6}, {"measurement": "audiogenic seizures, maximum response: Tonic seizure", "setting": "Fmr1 KO and WT mice; [4]", "result": 0}, {"measurement": "audiogenic seizures, maximum response: Wild running", "setting": "Fmr1 KO and WT mice; [4]", "result": 0}, {"measurement": "audiogenic seizures, maximum response: Clonic seizure", "setting": "Fmr1 KO and WT mice; [5]", "result": 0}, {"measurement": "audiogenic seizures, maximum response: Death", "setting": "Fmr1 KO and WT mice; [5]", "result": 0}, {"measurement": "audiogenic seizures, maximum response: No response", "setting": "Fmr1 KO and WT mice; [5]", "result": 5}, {"measurement": "audiogenic seizures, maximum response: Tonic seizure", "setting": "Fmr1 KO and WT mice; [5]", "result": 0}, {"measurement": "audiogenic seizures, maximum response: Wild running", "setting": "Fmr1 KO and WT mice; [5]", "result": 0}, {"measurement": "audiogenic seizures, maximum response: Clonic seizure", "setting": "Fmr1 KO and WT mice; [6]", "result": 0}, {"measurement": "audiogenic seizures, maximum response: Death", "setting": "Fmr1 KO and WT mice; [6]", "result": 0}, {"measurement": "audiogenic seizures, maximum response: No response", "setting": "Fmr1 KO and WT mice; [6]", "result": 5}, {"measurement": "audiogenic seizures, maximum response: Tonic seizure", "setting": "Fmr1 KO and WT mice; [6]", "result": 0}, {"measurement": "audiogenic seizures, maximum response: Wild running", "setting": "Fmr1 KO and WT mice; [6]", "result": 1}, {"measurement": "audiogenic seizures, maximum response: Clonic seizure", "setting": "Fmr1 KO and WT mice; [7]", "result": 0}, {"measurement": "audiogenic seizures, maximum response: Death", "setting": "Fmr1 KO and WT mice; [7]", "result": 0}, {"measurement": "audiogenic seizures, maximum response: No response", "setting": "Fmr1 KO and WT mice; [7]", "result": 6}, {"measurement": "audiogenic seizures, maximum response: Tonic seizure", "setting": "Fmr1 KO and WT mice; [7]", "result": 0}, {"measurement": "audiogenic seizures, maximum response: Wild running", "setting": "Fmr1 KO and WT mice; [7]", "result": 0}, {"measurement": "survival rate", "setting": "MeCP2 KO mice [1]; MeCP2 KO mice, 2 mg/kg", "result": 62.5, "unit": "%"}, {"measurement": "survival rate", "setting": "MeCP2 KO mice [1]; MeCP2 KO mice, 20 mg/kg", "result": 62.5, "unit": "%"}, {"measurement": "survival rate", "setting": "MeCP2 KO mice [1]; MeCP2 KO mice, 200 mg/kg", "result": 75, "unit": "%"}, {"measurement": "survival measured at PND 67", "setting": "MeCP2 KO mice [1]; MeCP2 KO mice, all three doses (2, 20, 200 mg/kg)", "result": "increase survival"}, {"measurement": "lethality", "setting": "MeCP2 KO mice [1]; WT mice treated with CBDV", "result": "No lethality"}, {"measurement": "cognitive impairment in short-term memory", "setting": "MeCP2 KO mice [2]; MeCP2 KO mice, 2, 20 and 200 mg/kg, each time point (PND 41, 56, 66), 30 minutes interval", "result": "significantly reverted"}, {"measurement": "cognitive impairment in long-term memory", "setting": "MeCP2 KO mice [2]; MeCP2 KO mice, all three doses, 24 hours interval", "result": "significantly counteract"}, {"measurement": "recognition memory (long-term)", "setting": "MeCP2 KO mice [2]; WT littermates", "result": "without affecting"}, {"measurement": "recognition memory (short-term)", "setting": "MeCP2 KO mice [2]; WT littermates", "result": "without affecting"}, {"measurement": "affinity for CB1 cannabinoid receptors", "setting": "[3]", "result": "neither bound with high enough affinity"}, {"measurement": "discrimination index", "setting": "Ube3am-/p+ (AS) mice", "result": "significantly increased"}]}
